Among the data in PubChem BioAssay AID2511 (Broad Institute, 2010) are EC50 values, retold here.

Structures are written as SMILES. Some results are limits rather than exact numbers.

This assay has as its system human washed platelets, SFLLRN-induced P-selectin, flow cytometry. Put plainly: PAR1 agonist-induced platelet activation inhibition – cell-based, fluorescence, flow cytometry, human platelets, dose response (AID 2511). The following applies: retest run 2. (In general: A flow cytometer gives signals particle by particle.)
Regarding `Cc1ccc(-n2c(N)c(C#N)c(-c3ccccc3)c(C#N)c2=O)cc1`, the EC50 (commonly the concentration giving half of the maximal effect) is below 3 µM.
With `CCCC(=O)Nc1cccc(NC(=O)c2ccccc2Br)c1` the figure was below 1 µM; with `O=C(Nc1cccc(NC(=O)c2ccccc2Cl)c1)c1ccco1`, below 1 µM; with `CCC(=O)Nc1cccc(NC(=O)c2ccccc2Br)c1`, below 3 µM.
Consider `CCCCC(=O)Nc1cccc(NC(=O)c2ccccc2Br)c1`, for which the concentration giving a half-maximal response (EC50) is below 10 µM.
